Results on four compounds are retold here after article PMC12736141, “New Quinazolin-4(3H)-one Derivatives as Potential Antitumoral Compounds: Synthesis, In Vitro Cytotoxicity Against the HepG2 Cell Line, and In Silico VEGFR-2 Targeting-Based Studies” (Molecules, 2025).

By IC50 is commonly meant the concentration that inhibits the measured activity by half. A high value points to a need for much substance.

Some results are limits rather than exact numbers.

The subject of data set [1] is human foreskin fibroblasts (BJ). As to the kind of experiment: MTT cytotoxicity assay on BJ cells. The data set is classed as cell-based. The following applies: 48 h; for cytotoxicity on BJ cell line (in words) / IC50: BJ cells; for IC50: Homo sapiens, MTT. The procedure:
(§1) Compounds 5a–c were dissolved in dimethylsulfoxide (DMSO) at an initial concentration of 10 mM, which was diluted 10 times with the characteristic medium and placed on plates at final concentrations ranging from 12.5 to 150 μM. The cells were seeded on plates of 96 wells at a density of 1 × 10^4 cells per well and incubated for 48 h. The culture medium was removed, and then 100 µL MTT (3-(4,5-dimethylthiazol-2-yl)-2,5-diphenyltetrazolium bromide) was added for 1 h. After that, it was removed, and 150 µL of pure dimethylsulfoxide (DMSO) was added. The samples were read using an ELISA Reader (BioTek, Winooski, VT, USA) at 570 nm. […] All determinations were made in triplicate.
(§2) The half-maximal inhibitory concentration (IC50) values were calculated to evaluate the potency of compounds 5a–c by fitting the investigational data with a 4-parameter logistic curve to obtain the dose-effect curves. The experimental IC50 results are expressed as mean values ± standard deviation (SD) of the three biological replicates.
(§3) Two-way analysis of variance (ANOVA) with a post hoc Bonferroni test was used to statistically examine the relative cell viability (%), compared to the negative control (NC), which was 100%. Data were analyzed using the […] software (GraphPad Prism 8.0.2. Software, La Jolla, CA, USA). In terms of statistical analysis, the results were considered different at values of p < 0.05 or p < 0.001.
For orientation: Tetrazolium dyes change colour on reduction, which living cells bring about.

Data set [2] deals with human hepatocellular carcinoma (HepG2). As to the kind of experiment: MTT cytotoxicity assay on HepG2 cells. The conditions noted are these: for Selectivity Index (SI) / IC50: 48 h; for Selectivity Index (SI): SI = IC50 BJ/IC50 HepG2; for IC50: Homo sapiens, HepG2 cells, MTT. It counts as cell-based. As for the experimental part:
as §1, §2, §3
The selectivity index (SI) was used as a parameter to determine how many times more cytotoxic the investigated compounds were by exposing them to normal and cancer cells. It was calculated using the IC50 value ratio between the BJ cell line and the HepG2 cell line, both obtained from ATCC (Manassas, VA, USA). Results that are greater than 2 are considered suitable, as reported in the literature.

Data set [3] in a line: In vitro lipophilicity by RP-TLC. The data set is classed as physicochemical. The following applies: for PC2 / PC1: PCA score on RM values; for PC1: lower value = more lipophilic; for RM / Rf / mRM / RM0 / b / lipophilicity ranking (in words): RP-TLC; for mRM: arithmetic mean of RM values; for RM0: extrapolation of RM to 0% organic modifier; for b: slope of the line RM = f(c); for lipophilicity ranking (in words): within series 5a–c. As for the experimental part:
The chromatographic performance of compounds 5a–c was investigated by reverse-phase thin-layer chromatography (RP-TLC). Standardized Silica gel 60 RP-18 F254S chromatographic plates (20 × 10 cm, Merck, Darmstadt, Germany) were used as the stationary phase, and an i-propanol–water mixture, in volumetric proportions ranging from 40% to 60% (v/v) i-propanol, was used as the mobile phase. The variance between two successive elution mixtures was 5%.
Solutions containing 1 mg/mL of compounds 5a–c were prepared in dimethylsulfoxide (DMSO). A volume equal to 2 μL of each sample was manually applied using chromatographic capillary micropipettes, at a distance of 10 mm from the lower side of the plates and 10 mm from their lateral sides. The gap between two successive spots was 10 mm.
The development process was carried out at room temperature using a chromatographic chamber pre-saturated for 30 min with mobile-phase vapors. The migration distance of the mobile phase was 80 mm for all concentrations used, and it was determined manually by calculating the retention factor Rf; thus, Rf = migration distance of the compound/migration distance of the mobile phase. Rf values were calculated for each tested compound at all five concentrations of the mobile phase.
The spots were visualized under UV light at a wavelength of 254 nm.
Starting from the Rf values determined by RP-TLC, a series of lipophilicity parameters was calculated. Therefore, based on the Bate-Smith and Westall equation, the logarithmic RM values were obtained:RM = log [1/Rf−1](2)
Based on the linear relationship between the RM value and the concentration of the organic solvent in the mobile phase [c], using the linear regression equation and the Soczewinski–Wachtmeister model (where b = slope of the line and c = concentration of organic modifier), the values of another lipophilicity parameter, RM0, were determined by extrapolating the RM values to 0% organic modifier:RM = RM0 + b[c](3)
The arithmetic mean of the lipophilicity parameter RM values, corresponding to a series of concentrations of the organic modifier in the mobile phase, was determined. Therefore, the mRM lipophilicity parameter was obtained.
Applying principal component analysis (PCA, XL-STAT) to the lipophilicity parameter RM, new lipophilicity parameters represented by the principal components (PCs) were obtained.
Starting from the experimentally determined Rf values, the RM logarithmic values were calculated. Consequently, the presence of minor errors in determining the Rf values can generate errors in calculating the RM values. By analyzing the principal components, the errors in estimating the RM0 values are eliminated through extrapolation, thereby providing more precise results.

Data set [4] is described as follows: In vitro lipophilicity by RP-HPLC. The following applies: logarithm of the capacity factor. It counts as physicochemical. As for the experimental part:
The chromatographic behavior of compounds 5a–c was also examined by high-performance liquid chromatography coupled with mass spectrometry (HPLC-MS). The analyses were conducted using an Agilent 1100 series HPLC system (binary pump, autosampler, thermostat, UV detector, Agilent Technologies, USA) coupled to a Bruker Ion Trap SL system (Bruker Daltonics GmbH). Chromatographic separation was completed using a Zorbax SB-C18 column (50 mm × 2.1 mm i.d., 3.5 μm, Agilent Technologies). The mobile phase consisted of a mixture of water with 0.1% (v/v) acetic acid and acetonitrile. The elution gradient started at 15% acetonitrile and increased to 95% within 5 min. The flow rate was 0.6 mL/min, and the thermostat was set at 45 °C. UV detection was performed at 242 nm. Based on the retention times obtained, the capacity factor k was calculated using formula […], where tR = retention time of the compound and t0 = retention time of the solvent:k = (tR − t0)/t0,(4)
The logarithm of the capacity factor (log k) was used to estimate the lipophilicity of the compounds [71]. The RP-HPLC method has multiple advantages, including low sample requirements, good accuracy of determinations, fast analysis, and high reproducibility.

The mark [5] stands for this setting: Isopropanol–Water 40:60 (v:v %).
[6] abbreviates: Isopropanol–Water 45:55 (v:v %).
Setting [7] is: Isopropanol–Water 50:50 (v:v %).
The mark [8] stands for this setting: Isopropanol–Water 55:45 (v:v %).
[9] abbreviates: Isopropanol–Water 60:40 (v:v %).

As to `CCn1c(SCC(=O)c2ccc(O)c(C(N)=O)c2)nc2ccccc2c1=O` [5c, 5-(2-((3-ethyl-4-oxo-3,4-dihydroquinazolin-2-yl)thio)acetyl)-2-hydroxybenzamide], in data set [1], the “cytotoxicity on BJ cell line (in words)” value is listed as “moderate cytotoxicity” and half-maximal inhibition (IC50) required 34.5 ± 1.09 µM. Also, in data set [1] (BJ, over 37.5 µM), the “relative cell viability result (in words)” value was “significantly unfavorable”. In addition, in data set [2], the “Selectivity Index (SI)” value is on record as 1.35 and the half-inhibitory concentration (IC50) is 25.46 ± 0.2 µM. Moreover, in data set [2] (HepG2, 48 h, over 37.5 µM), the “reduction in cell viability (in words)” value is “important reduction in cell viability”. In data set [3], the PC2 is on record as −0.31, the PC1 is given as 1.37, the mRM was −0.21 and the RM0 is reported as −0.03. Further, in data set [3], the b is 1.46 and the “lipophilicity ranking (in words)” value is reported as “The least lipophilic compound”. Besides, in data set [3] (setting [5]), the RM is 0.05 and the Rf stood at 0.47. In data set [3] (setting [6]), this compound returned an RM of −0.01 and a Rf of 0.51. In data set [3] (setting [7]), this compound yielded an RM of −0.14 and a Rf of 0.58. In data set [3] (setting [8]), the RM is listed as −0.32 and the Rf is listed as 0.68. Also, in data set [3] (setting [9]), the RM is on record as −0.62 and the Rf is reported as 0.81. In addition, in data set [4], the log k is on record as 0.91.
Regarding `C=CCn1c(SCC(=O)c2ccc(O)c(C(N)=O)c2)nc2ccccc2c1=O` [5a, 5-(2-((3-allyl-4-oxo-3,4-dihydroquinazolin-2-yl)thio)acetyl)-2-hydroxybenzamide], in data set [1], the “cytotoxicity on BJ cell line (in words)” value is “less cytotoxic or non-cytotoxic” and the IC50 was over 100 µM. The same compound registered an IC50 in data set [2] of over 50 µM. For the same compound, in data set [3], the PC2 is on record as −0.09, the PC1 was 0.64, the mRM was −0.16 and the RM0 is −0.03. The b in data set [3] stood at 1.60. In addition, in data set [3] (setting [5]), the RM is given as 0.12 and the Rf came out at 0.43. Besides, in data set [3] (setting [6]), the RM is given as 0.03 and the Rf amounted to 0.48. Also, in data set [3] (setting [7]), the RM is reported as −0.08 and the Rf turned out to be 0.55. In data set [3] (setting [8]), this compound returned an RM of −0.28 and a Rf of 0.66. Moreover, in data set [3] (setting [9]), the RM is on record as −0.60 and the Rf is 0.8. The compound also gave a log k in data set [4] of 0.93.
On to `NC(=O)c1cc(C(=O)CSc2nc3ccccc3c(=O)n2Cc2ccccc2)ccc1O` [5b, 5-(2-((3-benzyl-4-oxo-3,4-dihydroquinazolin-2-yl)thio)acetyl)-2-hydroxybenzamide], for which, in data set [1], the “cytotoxicity on BJ cell line (in words)” value is given as “moderate cytotoxicity” and the IC50 came to 26.6 ± 1.07 µM. The “reduction of viability values” in data set [1] (BJ, concentrations higher than 50 and 100 µM) is reported as “more than 35%”. Also, the “decrease of cell viability” value in data set [1] (BJ, concentrations over 25 µM) is recorded as “more than 50%”. Further, in data set [2], the “Selectivity Index (SI)” value is listed as 1.06 and half-maximal inhibition (IC50) required 24.87 ± 0.19 µM. In addition, in data set [3], the PC2 turned out to be 0.41, the PC1 was −2.01, the mRM is listed as 0.02 and the RM0 is reported as −0.03. Moreover, in data set [3], the b turned out to be 1.95 and the “lipophilicity ranking (in words)” value was “The most lipophilic compound”. In data set [3] (setting [5]), this compound returned an RM of 0.36 and a Rf of 0.30. In data set [3] (setting [6]), this compound yielded an RM of 0.23 and a Rf of 0.37. In data set [3] (setting [7]), the RM was 0.06 and the Rf is on record as 0.46. Also, in data set [3] (setting [8]), the RM is recorded as −0.14 and the Rf is 0.58. Moreover, in data set [3] (setting [9]), the RM was −0.41 and the Rf is 0.72. In data set [4], the log k is 0.99.
Turning to `CNC(=O)c1cc(Oc2ccc(NC(=O)Nc3ccc(Cl)c(C(F)(F)F)c3)cc2)ccn1` [Sorafenib, reference compound], the figures for the IC50 in data set [1] and in data set [2] were 5.11 ± 0.16 µM and 4.87 ± 0.19 µM, respectively. Moreover, the cell viability level entry in data set [2] (HepG2, 48 h, concentrations exceeding 5 µM) is reported as “below 50%”.
